Values after ≈ are worked out from the molar mass of the structure shown. Read-outs that look alike come from different tables or passages of the source.
Legend:
Botrytis cinerea = experiment: Example C bean grey mold; type: in vivo; settings: Botrytis cinerea, 24 h, read-out: disease control rating, Ex. C
In short: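 Test compounds were taken up in acetone (6% of final volume) and suspended at 100 or 20 ppm in purified water containing 250 ppm TREM 014 surfactant (polyhydric alcohol esters). Broad bean seedlings were sprayed with this suspension until run-off.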

Puccinia recondita = experiment: Example G wheat leaf rust; type: in vivo; settings: read-out: disease control rating, Ex. G
Phytophthora infestans = experiment: whole plant or invertebrate; type: in vivo; settings: Phytophthora infestans, in Solanum lycopersicum, read-out: disease control rating, Ex. H, 100 PPM
[1] = system: Cercosporidium personatum; experiment: Example B Peanut Late Leafspot; type: in vivo; settings: Nothopassalora personata, read-out: disease control rating, Ex. B
In short: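 Compounds were dissolved in acetone (6% of final volume) and suspended at 100 or 20 ppm in purified water containing 250 ppm TREM 014 surfactant (polyhydric alcohol esters). The suspension was sprayed to run-off on peanut seedlings.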

Pyricularia oryzae = experiment: whole plant or invertebrate; type: in vivo; settings: Pyricularia oryzae, 120 h; for pest or weed control at 100 ppm: read-out: disease control rating, Ex. E, 100 PPM
[2] = system: Candida albicans ATCC 11651; experiment: In vitro antifungal MIC, microtiter broth dilution; settings: Candida albicans, ATCC11651, 24 h, read-out: MIC values, C. albicans, 30°, 24 hours
Protocol: In vitro activity (Table 5) is expressed in terms of the minimal inhibitory concentration (MIC) of the test compound which inhibits the growth of yeasts and fungi.
The target organisms, Candida albicans ATCC 11651 and Aspergillus fumigatus ATCC 28214 are standardized, [V. Bezjak, J. Clinical Micro., 21 509-512 (1984)], to a concentration of 10^7 organisms/ml and maintained at -70° until use. Test compounds are solubilized in dimethyl sulfoxide (DMSO) and diluted in Eagle's Minimum Essential Medium (EMEM) broth to achieve a final concentration of 200 μg/ml. Stock solutions of standard antifungal agents are stored at -70° and diluted in EMEM as required.
The in vitro assay utilizes a microtiter broth dilution technique [L. Polonelli and G. Morace, Mycopathologia, 86, 21-28 (1984)] and C. […] The appropriate wells are inoculated with the required organism (C. albicans at 1×10^4 organisms/ml and A. fumigatus at 5×10^5 organisms/ml) and the assay incubated at 30° for 24 hours.

Rhizoctonia solani [3] = experiment: Example K cotton blight; type: in vivo; settings: 336 h, 5 kg/ha, read-out: disease control rating, Ex. K
Protocol: […] Seeds and soil were then inoculated with a mixture of sand, cereal and mycelium of the fungus Rhizoctonia solani, causal agent of cotton blight, and incubated in a growth chamber at 30° C. for 14 days. Disease ratings were then made.

[4] = system: Aspergillus fumigatus ATCC 28214; experiment: In vitro antifungal MIC, microtiter broth dilution; settings: Aspergillus fumigatus, ATCC28214, 24 h, read-out: MIC values, A. fumigatus, 30°, 24 hours
[5] = system: Erysiphe graminis f. sp. tritici; experiment: Example D wheat powdery mildew; type: in vivo; settings: Blumeria graminis, 144 h, read-out: disease control rating, Ex. D
In short: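 Compounds were dissolved in acetone (6% of final volume), then suspended at 100 or 20 ppm in purified water containing 250 ppm TREM 014 surfactant. Wheat seedlings were sprayed with this suspension to run-off.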

Sclerotium rolfsii = experiment: Example M southern blight; type: in vivo; settings: Agroathelia rolfsii, 336 h; 5 kg/ha; read-out: disease control rating, Ex. M
Protocol: […] Seeds and soil were then inoculated with a mixture of sand, cereal and mycelium of the fungus Sclerotium rolfsii, causal agent of sourthern blight, and incubated in a growth chamber at 30° C. for 14 days. Disease ratings were then made.

Pythium aphanadermatum = experiment: Example J cucumber damping off; type: in vivo; settings: Pythium, 336 h; 5 kg/ha; read-out: disease control rating, Ex. J
Protocol: […] Seeds and soil were then inoculated with a mixture of sand, cereal and mycelium of the fungus Pythium aphanadermatum, causal agent of cucumber damping off, and incubated in a growth chamber at 30° C. for 14 days. Disease ratings were then made.

Plasmorpara viticola = experiment: Example I grape downy mildew; type: in vivo; settings: read-out: disease control rating, Ex. I
In short: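 Compounds were dissolved in acetone (6% of final volume) and suspended at 100 or 20 ppm in purified water with 250 ppm TREM 014 surfactant (polyhydric alcohol esters). Grape seedlings were sprayed with this suspension to run-off.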

Venturia inaequalis = experiment: Example A apple scab; type: in vivo; settings: read-out: disease control rating, Ex. A
In short: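 Test compounds were dissolved in acetone (6% of final volume) and suspended at 100 or 20 ppm in purified water containing 250 ppm of the surfactant TREM 014 (polyhydric alcohol esters). Apple seedlings were sprayed with this suspension to the point of run-off.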

[6] = system: Candida albicans ATCC 11651; experiment: In vivo systemic Candida infection in mice, primary assay; parameters: species or system Candida albicans; CF-1 female mice; settings: Candida albicans, 150 mg/kg per day, read-out: % Survival
In short: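 CF-1 female mice (20 g, 10 per group) were infected IV with 0.2 ml of 1×10^7/ml C. albicans ATCC 11651, then given test compound subcutaneously at 50 or 150 mg/kg/day at 1 and 6 h post-infection and once daily for three more days. Survival was followed for 21 days against infected untreated mice; ≥70% protection at 14 days was scored active.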

Rhizoctonia solani [7] = experiment: Example F rice sheath blight; type: in vivo; settings: Rhizoctonia solani, 144 h, read-out: disease control rating, Ex. F
In short: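 Compounds, dissolved in acetone at 6% of final volume, were suspended at 100 or 20 ppm in purified water with 250 ppm polyhydric alcohol ester surfactant (TREM 014). Rice seedlings were sprayed with this suspension to run-off.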

Row | Structure (SMILES) | pest or weed control at 100 ppm (Botrytis cinerea) [%] | pest or weed control at 100 ppm (Phytophthora infestans) [%] | pest or weed control at 100 ppm (Pyricularia oryzae) [%] | MIC [2] [µg/mL] | pest or weed control at 5000 g/ha (Rhizoctonia solani [3]) [%] | MIC [4] [µg/mL] | pest or weed control at 5000 g/ha (Sclerotium rolfsii) [%] | pest or weed control at 5000 g/ha (Pythium aphanadermatum) [%] | pest or weed control at 100 ppm (Plasmorpara viticola) [%] | responders at 150 mg/kg ([6]; ATCC11651, 168 h, day 7) [%] | responders at 150 mg/kg ([6]; ATCC11651, 336 h, day 14) [%] | responders at 150 mg/kg ([6]; ATCC11651, 504 h, day 21) [%] | pest or weed control at 100 ppm (Rhizoctonia solani [7]) [%] | pest or weed control at 100 ppm (Puccinia recondita) [%] | pest or weed control at 100 ppm [1] [%] | pest or weed control at 100 ppm [5] [%] | pest or weed control at 100 ppm (Venturia inaequalis) [%] | further results
1 | C=C(c1cccc(F)c1)C(O)(Cn1cncn1)c1ccc(Cl)cc1Cl (centres unmarked) [Example 16, 2-(2,4-Dichlorophenyl)-3-(3-fluorophenyl)-1-(1H-1,2,4-triazol-1-yl)-3-buten-2-ol] | 46 | 0 | 0 | 0.03 (≈ 0.0793 µM) | 0 | 6.3 (≈ 16.7 µM) | 0 | 0 | 23 | 100 | 100 | 100 | 0 |  |  |  |  | pest or weed control at 20 ppm (Botrytis cinerea; 20 PPM): 27%; pest or weed control at 20 ppm (Puccinia recondita; 20 PPM): 100%; pest or weed control at 20 ppm ([1]; 20 PPM): 99%; pest or weed control at 20 ppm (Pyricularia oryzae; read-out: disease control rating, Ex. E, 20 PPM): 0%; pest or weed control at 20 ppm ([5]; 20 PPM): 67%; pest or weed control at 20 ppm (Venturia inaequalis; 20 PPM): 74%; pest or weed control at 20 ppm (Rhizoctonia solani [7]; 20 PPM): 0%
2 | C=C(c1ccccc1Cl)C(O)(Cn1cncn1)c1ccc(F)cc1 (centres unmarked) [Example 32] | 98 | 0 | 97 | ≤ 0.4 | 0 | 1.6 (≈ 4.65 µM) |  | 0 | 98 | 100 | 90 | 50 | 33 | 100 | 100 | 95 | 100 | 
3 | C=C(c1ccc(F)cc1F)C(O)(Cn1cncn1)c1ccc(F)cc1 (centres unmarked) [Example 94, 2-(4-Fluorophenyl)-3-(2,4-difluorophenyl)-1-(1H-1,2,4-triazol-1-yl)-3-buten-2-ol] | 96 | 0 | 78 | 0.4 (≈ 1.16 µM) | 0 | 50 (≈ 145 µM) |  | 0 | 0 | 100 | 40 | 10 | 36 | 100 | 61 | 98 | 86 | 
4 | C=C(c1ccc(Cl)cc1)C(O)(Cn1cncn1)c1ccccc1Cl (centres unmarked) [Example 671] | 92 | 0 | 84 | 0.03 (≈ 0.0833 µM) |  | 0.2 (≈ 0.555 µM) | 0 | 0 | 84 | 100 | 100 | 60 | 100 | 100 | 100 | 94 | 100 | 

Reference: patent US4965280A, “Antifungal carbinols” (E. I. Du Pont de Nemours and Company, priority 1989, dated 1990)
